Among the data in a melting point compilation (Tetko et al.; mined from patent text by program, amines drawn as free bases though some values may be those of a salt) are melting point values, retold here.

`Nc1nc(CCc2ccccc2)cc(C2CCN(C(=O)c3ccccc3)CC2)n1` displayed a melting point of 104 to 106 °C. Turning to `CCCc1nc2c(N)nc3ccc(-c4cccc(CO)c4)cc3c2s1`, the melting point was 176 to 177 °C. As for `COC(=O)c1ccc(Cc2cn(C)c3ccc([N+](=O)[O-])cc23)c(OC)c1`, the figure is 144 to 146 °C. The molecule `Cn1cc(C(=O)NC(=O)N2CC2C#N)c([N+](=O)[O-])n1` (stereo not given) came in with a melting point of 58 to 64 °C. Regarding `COc1cc2c(cc1OC)CCC(C(=O)NO)=C2`, the melting point lay in the range of 179 to 180 °C. As for `Cc1ncsc1CCOS(N)(=O)=O`, the figure is 80 to 83 °C.

Molecule `O=Cc1cc(Cl)ccc1OC/C=C/CCl` had a melting point of 62 to 63 °C. As for `COc1ccc(S(=O)C(C)(CC=C(C)C)C(=O)NO)cc1` (stereo not given), the figure is 108 °C; as for `CC1=C(CNC(=O)NCc2ccccc2)c2cc(F)ccc2/C1=C\c1ccc(S(C)(=O)=O)cc1`, 204 °C; as for `CNC(=O)C(Cc1ccc(OC)cc1)NC(=O)C(CC(C)C)C(CC(=O)NCC(=O)OC(C)(C)C)SC(C)=O` (stereo not given), 192 to 194 °C. The molecule `O=C(OCc1ccnc2ccccc12)ON1C(=O)CCC1=O` returned a melting point of 94 °C. `CCOC(=O)c1c(N2CCN(C(=O)OCC)CC2)c2ccc(C)nc2n(CC)c1=O` registered a melting point of 138 to 140 °C. `CCOC(=O)C(C)(C)Cc1cccnc1` displayed a melting point of 64 to 66 °C.

`O=C(O)CSc1nccc(-n2cc(C3c4ccccc4C=Cc4ccccc43)c(=S)[nH]c2=O)n1` registered a melting point of 190 °C. On to `Cc1c[nH]c(-c2nc([C@H]3CCCN(C(=O)c4ccc(F)cc4)C3)no2)c1`, for which the melting point was 183 °C.

Molecule `Cn1ncc(C(=O)O)c1C(=O)Nc1ccn2nc(N3CCCC3)nc2c1` yielded a melting point greater than 250 °C. Molecule `CS(=O)(=O)Oc1ccc(-c2sc3cc(OS(C)(=O)=O)ccc3c2C(=O)c2ccc(OCCBr)cc2)cc1` registered a melting point of 105 to 107 °C. As for `O=C1c2ccccc2C(=O)c2sc(Nc3ccccc3)nc21`, the figure is greater than 260 °C; as for `C#CCn1nc(-c2ccc(SC)cc2)c(-c2ccc(F)cc2)c1C(F)(F)F`, 136 to 138 °C. `CC1(C)C(=O)Nc2cc3[nH]c(-c4ccco4)nc3cc21`: the melting point was 311 to 316 °C.

`COc1ccc2cccnc2c1[N+](=O)[O-]` registered a melting point of 178 °C.

As for `OCCNc1nc(N2CCNCC2)nc2c1SCCC2`, the melting point lay within 116 to 120 °C. Take `Cc1nc(-c2ccc(O)cc2)cc(-c2cccc(Br)c2)c1C#N`: the melting point fell in the range of 214 to 218 °C. `CCC(C(=O)c1ccc(Cl)cc1)n1ncn(-c2ccc(N3CCN(c4cnccn4)CC3)nc2)c1=O` (single isomer, unassigned; (+)) showed a melting point of 190 °C. `N=c1nc(N)c2nc[nH]c2c(N)n1` displayed a melting point greater than 200 °C. Take `CCOC(=O)c1ccc(C(OC(c2ccc(C(=O)OCC)cc2)c2ccc3c(c2)C(C)(C)CCC3(C)C)c2ccc3c(c2)C(C)(C)CCC3(C)C)cc1` (stereo not given): the melting point is 109 to 111 °C. Consider `O=C(NC(=O)N(SN1CCCC1=O)c1ccc(Oc2ccc(C(F)(F)F)cc2Cl)cc1F)c1c(F)cccc1F`, for which the melting point was in the range of 125 to 126 °C.

Turning to `Cc1nc2ccccc2nc1OCc1nc(Cl)cc(N2CCCC2)n1`, the melting point lay in the range of 136 to 140 °C. As for `N#Cc1c(SCCl)nsc1SCCl`, the melting point is 92 to 93 °C. As for `Nc1ccc(NC(=O)C(=O)N2CCC(Cc3ccc(F)cc3)CC2)cc1`, the melting point was in the range of 141 to 143 °C.

Regarding `CC1NN(Cc2ccc(Cl)cc2)C(=O)NC1=O` (stereo not given), the melting point turned out to be 155 °C. Regarding `CSc1nc(O)nn1C`, the melting point lay within 128 to 130 °C.

With `CN(N)C(=S)Nc1ccc(C#N)cc1`, the melting point was in the range of 178 to 179 °C.

Take `CNC(=S)C1(c2cccc(C)n2)SCCCS1`: the melting point came out at 168 °C.

With `CCOC(=O)C=Cc1cc(C=CC(N)=O)cc(C(O)c2ccc(F)cc2)c1` (stereo not given), the melting point is 197 to 199 °C.
